Laboratory results taken from BindingDB's records for patent US20250270212 (Padarn Therapeutics, 2025).
pEC50: −log10 of the molar value.

Target: Wee1-like protein kinase (Homo sapiens, UniProt P30291)
Experiment: Wee1 Enzymatic Activity Inhibition Assay
Protocol: The enzymatic assay used to determine activity was a Luminescence assay using a Microplate Reader (BMG, ClarioStar Plus). The enzymatic reaction was carried out in assay buffer (40 mM TRIS-HCl pH 7.4-7.6, 20 mM MgCl2, 0.05 mM DTT, 0.1 mg/ml BSA, 5 mM MnCl2). The compounds were dispensed on a 384 well Diamond Well Plate (Axigen, Cat #P-384-120SQ-C-S) using the Biomek FX liquid handling system at 100× solutions of compounds in DMSO. 2×Wee1-PolyE4Y1 mix (final concentration 0.85 ng/μl of Wee1 and 0.2 μg/μl of PolyE4Y1) was prepared in 1× Assay buffer and 5.5 μl of mixture per well was added into 384w white Reaction plate with NBS (Corning, Cat #4513). 5.5 μl of PolyE4Y1 substrate w/o Wee1 in 1× buffer was used for negative control. Plates were centrifuged for 1 min at 100 g. Next step the Compounds were added to Reaction plate using Biomek station via following steps: 1 μl of 100× compounds (in DMSO) were mixed thoroughly with 49 μl of 2×10 μM ATP in Assay Buffer, then 5.5 μl of this mixture was added to Reaction plate with 5.5 μl of Wee1-PolyE4Y1 mix. Plates were centrifuged for 1 min at 100 g and incubated for 1 h at room temperature. Next 3 μL of ADP-Glo reagent (Promega, ADP-Glo™ Kinase Assay, Cat #V9102) per well was added. Plates were incubated for 30 minutes at room temperature. Then 6 μL of Kinase detection reagent (Promega, ADP-Glo™ Kinase Assay, Cat #V9102) per well was added and the Luminescence was measured using Microplate Reader.

Sequence of Wee1-like protein kinase (P30291 whole entry): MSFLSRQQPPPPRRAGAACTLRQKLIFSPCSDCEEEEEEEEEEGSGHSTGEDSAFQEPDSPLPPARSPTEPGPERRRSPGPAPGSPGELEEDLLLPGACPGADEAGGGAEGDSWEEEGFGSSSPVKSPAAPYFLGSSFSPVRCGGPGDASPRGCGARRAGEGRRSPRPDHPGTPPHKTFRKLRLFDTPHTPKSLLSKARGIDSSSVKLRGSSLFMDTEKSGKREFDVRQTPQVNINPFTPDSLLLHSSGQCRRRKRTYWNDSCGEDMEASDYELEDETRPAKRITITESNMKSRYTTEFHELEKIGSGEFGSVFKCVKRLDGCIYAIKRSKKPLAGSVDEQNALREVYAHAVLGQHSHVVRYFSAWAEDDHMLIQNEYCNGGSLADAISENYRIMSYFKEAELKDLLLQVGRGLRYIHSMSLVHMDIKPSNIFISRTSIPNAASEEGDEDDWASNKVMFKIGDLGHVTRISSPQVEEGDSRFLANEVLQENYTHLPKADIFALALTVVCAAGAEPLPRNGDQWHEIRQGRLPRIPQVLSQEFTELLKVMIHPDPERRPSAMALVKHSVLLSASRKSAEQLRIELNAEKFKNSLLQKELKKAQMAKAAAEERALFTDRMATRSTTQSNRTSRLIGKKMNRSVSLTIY

Row | SMILES | pEC50
1 | Cn1c(=O)c2cnc(N3CCN(C(=O)c4cc(Cc5n[nH]c(=O)c6ccccc56)ccc4F)CC3)nc2n1-c1ccccn1 [US20250270212, Compound 5] | < 6.00
2 | C=CCn1c(=O)c2cnc(NCCNC(=O)c3cc(Cc4n[nH]c(=O)c5ccccc45)ccc3F)nc2n1-c1cccc(C(C)(C)O)n1 [US20250270212, Compound 6] | < 6.00
3 | C=CCn1c(=O)c2cnc(Nc3ccc(N4CCN(C(=O)c5cc(Cn6c(=O)[nH]c(=O)c7c(F)cccc76)ccc5F)CC4)cc3)nc2n1-c1cccc(C(C)(C)O)n1 [US20250270212, Compound 16] | > 8.00
4 | Cn1c2nc(Nc3ccc(N4CCN(C(=O)c5cc(Cn6c(=O)[nH]c(=O)c7c(F)cccc76)ccc5F)CC4)cc3)ncc2c(=O)n1-c1ccccn1 [US20250270212, Compound 17] | < 6.00
5 | C=CCn1c(=O)c2cnc(Nc3ccc(N4CCN(C(=O)c5cc(Cn6c(=O)[nH]c(=O)c7c(F)cccc76)ccc5F)CC4)cc3)nc2n1-c1ccccn1 [US20250270212, Compound 28] | > 8.00
6 | C=CCn1c(=O)c2cnc(Nc3ccc(N4CCN(Cc5cc(Cn6c(=O)[nH]c(=O)c7c(F)cccc76)ccc5F)CC4)cc3)nc2n1-c1cccc(C(C)(C)O)n1 [US20250270212, Compound 34] | > 8.00
7 | C=CCn1c(=O)c2cnc(Nc3ccc(N4CCN(Cc5ccc(-c6[nH]c7cc(F)cc8c7c6CCNC8=O)cc5)CC4)cc3)nc2n1-c1ccccn1 [US20250270212, Compound 39] | > 8.00
8 | C=CCn1c(=O)c2cnc(NC3CCN(Cc4ccc(-c5[nH]c6cc(F)cc7c6c5CCNC7=O)cc4)CC3)nc2n1-c1cccc(C(C)(C)O)n1 [US20250270212, Compound 47] | < 6.00
9 | Cn1c2nc(Nc3ccc(N4CCC(c5nc6cccc(C(N)=O)c6[nH]5)CC4)cc3)ncc2c(=O)n1-c1ccccn1 [US20250270212, Compound 91] | < 6.00
10 | Cn1c(=O)c2cnc(Nc3ccc(N4CCCC(c5nc6cccc(C(N)=O)c6[nH]5)C4)cc3)nc2n1-c1ccccn1 (stereo unspecified) [US20250270212, Compound 96] | > 8.00

Now from value to compound:

Row | pEC50 | SMILES
11 | > 8.00 | C=CCn1c(=O)c2cnc(Nc3ccc(N4CCN(C(=O)c5cc(Cc6n[nH]c(=O)c7ccccc67)ccc5F)CC4)cc3)nc2n1-c1cccc(C(C)(C)O)c1 [US20250270212, Compound 1]
12 | < 6.00 | C=CCn1c(=O)c2cnc(N3CCN(C(=O)c4cc(Cc5n[nH]c(=O)c6ccccc56)ccc4F)CC3)nc2n1-c1cccc(C(C)(C)O)n1 [US20250270212, Compound 2]
13 | < 6.00 | C=CCn1c(=O)c2cnc(NC3CCN(C(=O)c4cc(Cc5n[nH]c(=O)c6ccccc56)ccc4F)CC3)nc2n1-c1cccc(C(C)(C)O)n1 [US20250270212, Compound 4]
14 | > 8.00 | Cn1c(=O)c2cnc(Nc3ccc(N4CCN(C(=O)c5cc(Cc6n[nH]c(=O)c7ccccc67)ccc5F)CC4)cc3)nc2n1-c1cccc(C(C)(C)O)n1 [US20250270212, Compound 7]
15 | > 8.00 | Cn1c(=O)c2cnc(Nc3ccc(N4CCN(Cc5cc(Cc6n[nH]c(=O)c7ccccc67)ccc5F)CC4)cc3)nc2n1-c1cccc(C(C)(C)O)n1 [US20250270212, Compound 8]
16 | < 6.00 | Cn1c2nc(Nc3ccc(N4CCN(C(=O)c5cc(Cc6n[nH]c(=O)c7ccccc67)ccc5F)CC4)cc3)ncc2c(=O)n1-c1ccccn1 [US20250270212, Compound 12]
